# Assay results from patent US12171756B2, “NLRP3 modulators” (Innate Tumor Immunity, Inc., priority 2017, dated 2024).
# Structures can show the parent of a compound that is named as a salt.
# Assays:
# [1] = system: IL-1β production in PMA-differentiated THP-1 cells; experiment: Measurement of IL-1β production in PMA-differentiated THP-1 cells (ELISA, 4 hours); type: cell-based, human; conditions: Homo sapiens, THP-1, human IL-1β production, assayed using one or more of the described procedures, read-out: NLRP3 hIL1B IC50
# In short: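 IL-1β released into supernatant was measured by ELISA after a 4-hour compound exposure (final DMSO 1%, concentrations such as 100 down to 0.1 μM). Cells: THP-1 pretreated 24 h with 10 μg/ml PMA, then trypsinized and seeded at 1×10^6/ml in 2% FBS RPMI.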
# human TLR8 = target: T1, human TLR8 (Homo sapiens, UniProt Q9NR97); experiment: In vitro human TLR8 binding reporter assay (HEK-Blue, NF-kB/AP1-inducible SEAP); type: cell-based; conditions: HEK-Blue human TLR8 SEAP reporter cells; activity range classes; read-out: TLR8 Agonist EC50
# T1 construct: host or cells: human HEK-Blue cells (HEK293-derived) co-expressing TLR8 and an NF-kB/AP1-inducible SEAP reporter
# T1 sequence (Q9NR97 27-1041): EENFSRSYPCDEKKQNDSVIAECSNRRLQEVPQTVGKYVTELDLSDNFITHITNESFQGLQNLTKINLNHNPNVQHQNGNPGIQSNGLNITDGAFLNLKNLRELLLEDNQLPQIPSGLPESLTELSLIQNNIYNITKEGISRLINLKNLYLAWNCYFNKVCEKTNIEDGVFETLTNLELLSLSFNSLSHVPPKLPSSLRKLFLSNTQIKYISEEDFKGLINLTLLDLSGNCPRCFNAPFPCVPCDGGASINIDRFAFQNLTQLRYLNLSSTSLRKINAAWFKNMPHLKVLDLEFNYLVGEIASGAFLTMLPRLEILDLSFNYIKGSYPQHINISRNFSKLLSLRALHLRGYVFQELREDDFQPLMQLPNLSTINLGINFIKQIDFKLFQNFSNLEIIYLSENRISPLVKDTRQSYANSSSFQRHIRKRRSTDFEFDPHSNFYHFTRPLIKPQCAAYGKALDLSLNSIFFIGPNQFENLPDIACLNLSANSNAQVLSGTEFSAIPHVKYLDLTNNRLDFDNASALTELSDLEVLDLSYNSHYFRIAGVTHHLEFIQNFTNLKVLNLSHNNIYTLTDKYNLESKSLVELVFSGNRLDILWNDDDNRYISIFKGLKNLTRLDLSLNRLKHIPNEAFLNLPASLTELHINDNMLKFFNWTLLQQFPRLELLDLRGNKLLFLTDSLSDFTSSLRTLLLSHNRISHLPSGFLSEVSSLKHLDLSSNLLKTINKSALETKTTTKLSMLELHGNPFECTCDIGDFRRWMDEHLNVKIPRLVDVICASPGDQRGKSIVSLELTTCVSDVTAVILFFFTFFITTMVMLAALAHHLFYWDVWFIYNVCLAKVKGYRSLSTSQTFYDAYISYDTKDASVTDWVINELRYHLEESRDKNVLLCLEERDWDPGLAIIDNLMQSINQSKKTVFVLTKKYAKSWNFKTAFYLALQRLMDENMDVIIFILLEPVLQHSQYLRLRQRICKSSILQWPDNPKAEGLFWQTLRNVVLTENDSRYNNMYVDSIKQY
# In short: (§1)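 EC50s come from NF-kB/AP1-driven SEAP secretion in HEK-Blue cells expressing TLR7 or TLR8, measured with Quanti-Blue after an 18 h compound incubation. Maximal response is defined by a 50 μM reference standard.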
# human TLR7 = target: T2, human TLR7 (Homo sapiens, UniProt Q9NYK1); experiment: In vitro human TLR7 binding reporter assay (HEK-Blue, NF-kB/AP1-inducible SEAP); type: cell-based; conditions: HEK-Blue human TLR7 SEAP reporter cells; activity range classes; read-out: TLR7 Agonist EC50
# T2 construct: host or cells: human HEK-Blue cells (HEK293-derived) co-expressing TLR7 and an NF-kB/AP1-inducible SEAP reporter
# T2 sequence (Q9NYK1 27-1049): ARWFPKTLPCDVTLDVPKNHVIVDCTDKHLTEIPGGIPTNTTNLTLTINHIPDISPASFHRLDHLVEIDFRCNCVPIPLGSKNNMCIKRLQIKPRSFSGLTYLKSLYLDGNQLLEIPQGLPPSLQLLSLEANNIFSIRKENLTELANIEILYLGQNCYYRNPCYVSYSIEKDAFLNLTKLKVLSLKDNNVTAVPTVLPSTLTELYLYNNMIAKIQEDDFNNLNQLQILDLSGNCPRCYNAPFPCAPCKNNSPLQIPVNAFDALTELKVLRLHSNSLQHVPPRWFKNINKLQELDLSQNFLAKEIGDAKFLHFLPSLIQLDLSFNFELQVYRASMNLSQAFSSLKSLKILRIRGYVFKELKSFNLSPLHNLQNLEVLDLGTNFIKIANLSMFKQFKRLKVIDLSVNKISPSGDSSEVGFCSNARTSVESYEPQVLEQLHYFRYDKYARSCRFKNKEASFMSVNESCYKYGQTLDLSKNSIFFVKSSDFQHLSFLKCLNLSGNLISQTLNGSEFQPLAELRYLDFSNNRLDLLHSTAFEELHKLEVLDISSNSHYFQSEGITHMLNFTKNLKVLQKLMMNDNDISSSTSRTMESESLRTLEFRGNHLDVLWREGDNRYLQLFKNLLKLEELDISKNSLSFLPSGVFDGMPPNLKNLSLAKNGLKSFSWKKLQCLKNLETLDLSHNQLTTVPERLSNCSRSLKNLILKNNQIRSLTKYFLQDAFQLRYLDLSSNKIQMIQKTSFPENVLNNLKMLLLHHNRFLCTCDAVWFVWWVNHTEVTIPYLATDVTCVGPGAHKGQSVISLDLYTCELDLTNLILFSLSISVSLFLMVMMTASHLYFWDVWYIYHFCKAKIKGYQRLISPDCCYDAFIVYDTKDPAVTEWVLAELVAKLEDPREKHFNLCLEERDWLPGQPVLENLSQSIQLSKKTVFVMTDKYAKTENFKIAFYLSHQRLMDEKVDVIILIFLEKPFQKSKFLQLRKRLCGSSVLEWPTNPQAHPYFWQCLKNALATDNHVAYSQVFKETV
# In short: as §1
IC50 [1] [µM],EC50 (human TLR8) [µM],EC50 (human TLR7) [µM],SMILES
2.35,> 100,> 100,Cn1nccc1CNc1cc(N)nc2cc(-c3ccn[nH]3)ccc12 [Compound 242]
0.28,> 100,> 100,"Nc1cc(NCCCO)c2ccc(-n3cccn3)cc2n1 [Compound 173, 3-((2-amino-7-(1H-pyrazol-1-yl)quinolin-4-yl)amino)propan-1-ol]"
0.7,> 100,> 100,Nc1cc(NC[C@@H](O)CO)c2ccc(-c3ccn[nH]3)cc2n1 [Compound 287]
0.06,> 100,> 100,N#CCCCNc1cc(N)nc2cc(-c3ccn[nH]3)ccc12 [Compound 222]
0.97,> 100,> 100,Nc1cc(NCc2cccnc2)c2ccc(-n3cccn3)cc2n1 [Compound 175]
1.29,> 100,> 100,"COC(=O)NCCNc1cc(N)nc2cc(-c3ccn[nH]3)ccc12 [Compound 205, methyl (2-((2-amino-7-(1H-pyrazol-5-yl)quinolin-4-yl)amino)ethyl)carbamate]"
2.03,> 100,> 100,Nc1cc(OCC2(CO)CCC2)c2ccc(-c3ccsc3)cc2n1 [Compound 336]
3.13,> 100,> 100,Cn1nncc1COc1cc(N)nc2cc(-c3ccn[nH]3)ccc12 [Compound 311]
1.41,> 100,> 100,CS(=O)(=O)CCNc1cc(N)nc2cc(-c3ccn[nH]3)ccc12 [Compound 140]
9.27,> 100,> 100,Nc1cc(NCCCNC(=O)c2cccnc2)c2ccc(-c3ccn[nH]3)cc2n1 [Compound 212]
0.48,> 100,> 100,"Nc1cc(-c2ccn[nH]2)c2ccc(-c3ccn[nH]3)cc2n1 [Compound 339, 4,7-di(1H-pyrazol-5-yl)quinolin-2-amine, HCl]"
0.11,> 100,> 100,Nc1cc(NCc2cnc[nH]2)c2ccc(-n3cccn3)cc2n1 [Compound 307]
0.29,> 100,> 100,C[C@H](O)CNc1cc(N)nc2cc(-c3ccn[nH]3)ccc12 [Compound 134]
4.19,> 100,> 100,"Nc1cc(NCCC(=O)N2CCOCC2)c2ccc(-c3ccn[nH]3)cc2n1 [Compound 350, 3-((2-amino-7-(1H-pyrazol-5-yl)quinolin-4-yl)amino)-1-morpholinopropan-1-one]"
1.11,> 100,> 100,Nc1cc(NC[C@H](O)CO)c2ccc(-c3ccn[nH]3)cc2n1 [Compound 153]
0.85,> 100,> 100,Nc1cc(OCC2CCOCC2)c2ccc(-c3ccn[nH]3)cc2n1 [Compound 187]
0.07,> 100,> 100,"Nc1cc(NCCCO)c2cc(F)c(-c3ccn[nH]3)cc2n1 [Compound 318, 3-((2-amino-6-fluoro-7-(1H-pyrazol-5-yl)quinolin-4-yl)amino)propan-1-ol]"
2.23,> 100,> 100,"Nc1cc(CCCO)c2ccc(-n3cccn3)cc2n1 [Compound 216, 3-(2-amino-7-(1H-pyrazol-1-yl)quinolin-4-yl)propan-1-ol]"

IC50 [1] [µM],EC50 (human TLR8) [µM],EC50 (human TLR7) [µM],SMILES
2.55,> 100,> 100,Nc1cc(N2CCC(O)CC2)c2ccc(-c3ccn[nH]3)cc2n1 [Compound 145]
24.7,> 100,> 100,Nc1cc(NC[C@@H]2CCCNC2)c2ccc(-c3ccn[nH]3)cc2n1 [Compound 326]
0.87,> 100,> 100,Nc1cc(NCCc2ccccn2)c2ccc(-n3cccn3)cc2n1 [Compound 293]
1.56,> 100,> 100,Nc1cc(NC[C@H]2CCCN2)c2ccc(-c3cc[nH]n3)cc2n1 [Compound 285]
14.5,> 100,> 100,Nc1nc2cc(-c3ccn[nH]3)ccc2cc1C(=O)Nc1cccnc1 [Compound 124]
2.89,> 100,> 100,CN(Cc1cccnc1)c1cc(N)nc2cc(-c3ccn[nH]3)ccc12 [Compound 264]
0.15,> 100,> 100,Nc1cc(NCC(F)(F)c2ccccn2)c2ccc(-c3ccn[nH]3)cc2n1 [Compound 161]
1.43,> 100,> 100,Nc1cc(N2CC[C@H](O)C2)c2ccc(-c3ccn[nH]3)cc2n1 [Compound 142]
0.52,> 100,> 100,Nc1cc(NCCn2cncn2)c2ccc(-n3cccn3)cc2n1 [Compound 308]
2.25,> 100,> 100,Nc1cc(NCCCn2ccnc2)c2ccc(-c3ccn[nH]3)cc2n1 [Compound 241]
2.87,> 100,> 100,CN(Cc1cc[nH]n1)c1cc(N)nc2cc(-c3ccn[nH]3)ccc12 [Compound 263]
0.16,> 100,> 100,Nc1cc(NCc2cn[nH]c2)c2ccc(-c3ccn[nH]3)cc2n1 [Compound 228]
1.31,> 100,> 100,Nc1cc(NC2CCOCC2)c2ccc(-c3ccn[nH]3)cc2n1 [Compound 278]
1.15,> 100,> 100,Nc1nc2cc(-c3ccn[nH]3)ccc2cc1-c1ccc2[nH]ncc2c1 [Compound 127]
0.47,> 100,> 100,C[C@@H](CO)Nc1cc(N)nc2cc(-c3ccn[nH]3)ccc12 [Compound 165]
1.89,> 100,> 100,CC(=O)NCCCOc1cc(N)nc2cc(-c3ccn[nH]3)ccc12 [Compound 200]
0.69,> 100,> 100,Nc1cc(NCc2cncnc2)c2ccc(-c3ccn[nH]3)cc2n1 [Compound 317]
